Assay [1] relates to MV4-11. The assay can be described thus: Induction of cell cycle arrest in human MV4-11 cells assessed as proportion of cells at S phase at 3.2 nM incubated for 24 hrs by PI staining based flow cytometry (reference value: 25.97%). It is filed as functional. Background: A flow cytometer gives signals particle by particle.
Assay [2] has as its system HL-60. The assay can be described thus: Induction of cell cycle arrest in human HL-60 cells assessed as proportion of cells at G1 phase at 400 nM incubated for 24 hrs by PI staining based flow cytometry (reference value: 49.36%). The class given is functional.
Assay [3] concerns HL-60. The assay can be described thus: Induction of cell cycle arrest in human HL-60 cells assessed as proportion of cells at subG1 phase at 80 nM incubated for 24 hrs by PI staining based flow cytometry (reference value: 6.94%). The class given is functional.
For assay [4], the system named is HL-60. The assay can be described thus: Induction of cell cycle arrest in human HL-60 cells assessed as proportion of cells at G2/M phase at 80 nM incubated for 24 hrs by PI staining based flow cytometry (reference value: 14.52%). The class given is functional.
Assay [5] deals with HL-60. Put plainly: Induction of cell cycle arrest in human HL-60 cells assessed as proportion of cells at subG1 phase at 2000 nM incubated for 24 hrs by PI staining based flow cytometry (reference value: 6.94%). The class given is functional.
Assay [6] concerns HL-60. The assay can be described thus: Induction of cell cycle arrest in human HL-60 cells assessed as proportion of cells at G1 phase at 16 nM incubated for 24 hrs by PI staining based flow cytometry (reference value: 49.36%). The class given is functional.
Assay [7] relates to HL-60. The assay can be described thus: Induction of cell cycle arrest in human HL-60 cells assessed as proportion of cells at subG1 phase at 400 nM incubated for 24 hrs by PI staining based flow cytometry (reference value: 6.94%). It is filed as functional.
Assay [8] in a line: Selectivity ratio of GI50 for antiproliferative activity against human MV4-11 cells to GI50 for antiproliferative activity against human MOLM-13 cells.
Another assay relates to EOL1. Put plainly: cells. The conditions noted are these: Homo sapiens, EOL1, 72 h.
The subject of assay [9] is MV4-11. The assay can be described thus: Antiproliferative activity against human MV4-11 cells harboring homozygous FLT3-ITD mutant assessed as inhibition of cell growth incubated for 72 hrs by resazurin dye based fluorescence analysis. The class given is functional. A general note: Resazurin is reduced to fluorescent resorufin, in cell work by metabolically active cells.

Assay [10] concerns the target High affinity nerve growth factor receptor (Homo sapiens) (UniProt P04629). Put plainly: Binding affinity to human TrkA (441 to 760 residues) expressed in baculovirus-infected Sf21 cells assessed as residual activity using poly(Glu:Tyr) as substrate in presence of ATP and [gamma-33P]ATP incubated for 30 mins by MRC Protein Phoshorylation and Ubiquitylation Unit based Express Panel assay.

In assay [11] the target is T1, Receptor-type tyrosine-protein kinase FLT3 (Homo sapiens, UniProt P36888).
T1 sequence (P36888 whole entry): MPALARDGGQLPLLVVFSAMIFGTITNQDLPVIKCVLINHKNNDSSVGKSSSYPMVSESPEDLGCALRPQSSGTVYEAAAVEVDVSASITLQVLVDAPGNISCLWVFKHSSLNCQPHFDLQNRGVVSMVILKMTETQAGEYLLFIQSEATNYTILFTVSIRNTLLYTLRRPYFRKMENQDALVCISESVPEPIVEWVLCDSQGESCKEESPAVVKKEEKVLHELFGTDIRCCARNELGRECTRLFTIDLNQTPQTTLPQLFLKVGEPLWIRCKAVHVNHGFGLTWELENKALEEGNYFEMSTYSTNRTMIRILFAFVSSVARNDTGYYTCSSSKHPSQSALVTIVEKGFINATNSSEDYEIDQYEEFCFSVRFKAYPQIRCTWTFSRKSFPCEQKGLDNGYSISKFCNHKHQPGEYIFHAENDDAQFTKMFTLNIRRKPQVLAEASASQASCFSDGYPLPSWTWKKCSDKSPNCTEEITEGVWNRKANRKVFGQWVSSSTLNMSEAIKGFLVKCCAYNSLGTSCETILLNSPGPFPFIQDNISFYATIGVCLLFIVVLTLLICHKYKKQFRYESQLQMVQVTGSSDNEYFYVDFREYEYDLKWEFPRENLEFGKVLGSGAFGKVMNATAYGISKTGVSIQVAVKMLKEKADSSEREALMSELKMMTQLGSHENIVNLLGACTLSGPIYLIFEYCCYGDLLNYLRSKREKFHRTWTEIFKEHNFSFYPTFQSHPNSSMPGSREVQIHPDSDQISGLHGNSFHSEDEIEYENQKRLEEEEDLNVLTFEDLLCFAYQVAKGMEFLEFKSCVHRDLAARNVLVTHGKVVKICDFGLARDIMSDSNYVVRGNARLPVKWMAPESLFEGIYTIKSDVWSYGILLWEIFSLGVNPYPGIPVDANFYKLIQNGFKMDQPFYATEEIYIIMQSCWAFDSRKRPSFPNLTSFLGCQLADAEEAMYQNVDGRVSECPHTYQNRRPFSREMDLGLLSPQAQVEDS
Description: Inhibition of NanoLuc-fused FLT3 (unknown origin) transfected in HEK293 cells incubated for 2 hrs by NanoBRET target engagement assay

Assay [12] has as its system MV4-11. Put plainly: Induction of cell cycle arrest in human MV4-11 cells assessed as proportion of cells at subG1 phase at 400 nM incubated for 24 hrs by PI staining based flow cytometry (reference value: 10.44%). The class given is functional.
The subject of assay [13] is MV4-11. The assay can be described thus: Induction of cell cycle arrest in human MV4-11 cells assessed as proportion of cells at S phase at 2000 nM incubated for 24 hrs by PI staining based flow cytometry (reference value: 25.97%). It is filed as functional.
In assay [14] the target is Receptor-type tyrosine-protein kinase FLT3 (Homo sapiens, UniProt P36888, ITD). Put plainly: biochemical. The class given is cell-based, Sf9.
The next assay concerns K562. The assay can be described thus: cells. The conditions noted are these: Homo sapiens, K562, 72 h.
The subject of assay [15] is HL-60. Put plainly: Induction of cell cycle arrest in human HL-60 cells assessed as proportion of cells at S phase at 3.2 nM incubated for 24 hrs by PI staining based flow cytometry (reference value: 36.12%). It is filed as functional.
The subject of assay [16] is MV4-11. Put plainly: Induction of cell cycle arrest in human MV4-11 cells assessed as proportion of cells at G2/M phase at 3.2 nM incubated for 24 hrs by PI staining based flow cytometry (reference value: 10%). It is filed as functional.
Assay [17] deals with HL-60. Put plainly: Induction of cell cycle arrest in human HL-60 cells assessed as proportion of cells at S phase at 80 nM incubated for 24 hrs by PI staining based flow cytometry (reference value: 36.12%). It is filed as functional.
For assay [18], the system named is HL-60. Put plainly: Induction of cell cycle arrest in human HL-60 cells assessed as proportion of cells at G1 phase at 80 nM incubated for 24 hrs by PI staining based flow cytometry (reference value: 49.36%). The class given is functional.
The test system of assay [19] is HL-60. The assay can be described thus: Induction of cell cycle arrest in human HL-60 cells assessed as proportion of cells at subG1 phase at 16 nM incubated for 24 hrs by PI staining based flow cytometry (reference value: 6.94%). It is filed as functional.
Assay [20] concerns Receptor-type tyrosine-protein kinase FLT3 (Homo sapiens), P36888 [UNDEFINED MUTATION]. The class given is cell-based. The conditions noted are these: BaF3, dose lower […], dose upper 2000.0 nM, time 2.0 hrs.
Assay [21] relates to HL-60. The assay can be described thus: Induction of cell cycle arrest in human HL-60 cells assessed as proportion of cells at S phase at 400 nM incubated for 24 hrs by PI staining based flow cytometry (reference value: 36.12%). It is filed as functional.

Activity calls are given as the source filed them. The rule behind the calls is not given here. A value given as a limit tells only on which side of the number the result lay.

Chain of High affinity nerve growth factor receptor (Homo sapiens) (P04629 33-796 limits assumed): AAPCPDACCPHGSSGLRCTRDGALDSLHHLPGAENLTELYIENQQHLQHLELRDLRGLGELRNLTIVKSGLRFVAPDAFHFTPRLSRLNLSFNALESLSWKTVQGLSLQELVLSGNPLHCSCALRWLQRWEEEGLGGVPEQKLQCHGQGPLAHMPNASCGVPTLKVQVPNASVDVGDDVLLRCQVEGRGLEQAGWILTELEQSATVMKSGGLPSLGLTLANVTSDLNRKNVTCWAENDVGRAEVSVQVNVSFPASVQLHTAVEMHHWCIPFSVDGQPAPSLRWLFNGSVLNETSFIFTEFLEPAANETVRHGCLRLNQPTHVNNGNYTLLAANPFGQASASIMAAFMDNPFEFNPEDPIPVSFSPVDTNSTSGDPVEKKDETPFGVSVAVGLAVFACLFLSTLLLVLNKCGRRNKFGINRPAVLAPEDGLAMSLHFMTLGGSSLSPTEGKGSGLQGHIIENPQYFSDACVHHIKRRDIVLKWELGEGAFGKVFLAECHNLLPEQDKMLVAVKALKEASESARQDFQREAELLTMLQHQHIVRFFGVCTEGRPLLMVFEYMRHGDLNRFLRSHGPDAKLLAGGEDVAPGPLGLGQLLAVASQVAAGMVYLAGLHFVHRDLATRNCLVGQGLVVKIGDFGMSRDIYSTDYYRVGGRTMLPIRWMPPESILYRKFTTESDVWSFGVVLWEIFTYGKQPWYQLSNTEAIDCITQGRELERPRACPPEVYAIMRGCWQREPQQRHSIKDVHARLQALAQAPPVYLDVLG
Description for EOL1: Antiproliferative activity against human EOL1 cells harboring FIP1L1-PDGFRA fusion gene assessed as inhibition of cell growth incubated for 72 hrs by resazurin dye based fluorescence analysis
Description for K562: Antiproliferative activity against FLT3-independent human K562 cells assessed as inhibition of cell growth incubated for 72 hrs by resazurin dye based fluorescence analysis

Usually GI50 stands for the concentration at which growth is held to half of that of the control. By IC50 is commonly meant the concentration at which inhibition is half-maximal. Regarding `COc1ccc(NC(=O)Nc2nnc(Sc3ncnc4oc(-c5ccccc5)cc34)s2)cc1`, the Activity in the assay on MV4-11 [1] amounted to 20.86%; in the assay on HL-60 [2] it was 50.35%; in the assay with HL-60 [3], 8.17%; in the assay with HL-60 [4] it was 13.68%; in the assay with HL-60 [5], 7.81%; in the assay on HL-60 [6], 48.76%. In addition, the Activity was 7.9% with HL-60 [7]; less than 50% in assay [10]; 32.95% with MV4-11 [12]; 5.78% in the assay on MV4-11 [13]; 37.01% in the assay on HL-60 [15]; 6.22% in the assay on MV4-11 [16]. The Activity in the assay on HL-60 [17] was 37.03%; in the assay on HL-60 [18] it was 49.29%; in the assay on HL-60 [19], 7.48%; in the assay with HL-60 [21], 35.91%. For the same molecule, the RatioGI50 in assay [8] was 100. Further, the values for the GI50 in the assay on EOL1, in the assay on MV4-11 [9] and in the assay with K562 were 39 nM, 105 nM and more than 10000 nM, respectively. Also, the IC50 in assay [11] is 174 nM; in assay [14], 31 nM. The inhibition result in assay [20] is “Active”.
